Values of other authors, collected in patent US20050112339A1, “Antimicrobial protection for plastic structures” (priority 2003, published 2005).

Conditions: in water

Row | Compound | water solubility
1 | On1ccccc1=S.On1ccccc1=S.[Cu] [copper pyrithione] | 0.1 milligrams per liter
2 | [Na+].[O-][n+]1ccccc1[S-] [sodium pyrithione] | 450 grams per liter
3 | zinc pyrithione | 6 milligrams per liter
